The values below are quoted from earlier work in patent US4701458A (priority 1985, dated 1987).

One series concerns ST. The note with it: cited from earlier work.
Series [1] concerns intestinal fluid secretion. The note with it: in vivo; cited from earlier work.
In a further series the test system is guanylate cyclase. The following applies: cited from earlier work.

Molecules are shown by their SMILES.

For the compound `OCCS` [2-mercaptoethanol], in the series on ST, the “effect on biological activity of ST (in words)” value is “loses biological activity promptly”.
Take `COc1ccc(O)c(C(C)(C)C)c1` [Butylated hydroxyanisole]: the “effect on ST-induced intestinal fluid secretion (in words)” value in series [1] was “significantly reduces”. Besides, the “effect on ST activation of guanylate cyclase (in words)” value in the series on guanylate cyclase is reported as “significantly reduces”.
In the case of `NO` [hydroxylamine], the “effect on intestinal ion transport (in words)” value in series [1] is given as “causes intestinal ion transport alterations similar to those seen with ST”. Also, the “effect on guanylate cyclase (in words)” value in the series on guanylate cyclase was “activates guanylate cyclase”.
